Reference: ChEMBL document CHEMBL4257534, “Curcumin-based pyrazoline analogues as selective inhibitors of human monoamine oxidase A” (Medchemcomm, 2018)

How the values were obtained:
[1] = target: T1, Amine oxidase [flavin-containing] A (Homo sapiens, UniProt P21397); assay: Suicide inhibition of recombinant human MAO-A assessed as reduction in H2O2 production preincubated for 30 mins followed by p-tyramine substrate addition measured after 30 mins by Lineweaver-Burk plot analysis; settings: 0.5 h
T1 sequence (P21397 whole entry): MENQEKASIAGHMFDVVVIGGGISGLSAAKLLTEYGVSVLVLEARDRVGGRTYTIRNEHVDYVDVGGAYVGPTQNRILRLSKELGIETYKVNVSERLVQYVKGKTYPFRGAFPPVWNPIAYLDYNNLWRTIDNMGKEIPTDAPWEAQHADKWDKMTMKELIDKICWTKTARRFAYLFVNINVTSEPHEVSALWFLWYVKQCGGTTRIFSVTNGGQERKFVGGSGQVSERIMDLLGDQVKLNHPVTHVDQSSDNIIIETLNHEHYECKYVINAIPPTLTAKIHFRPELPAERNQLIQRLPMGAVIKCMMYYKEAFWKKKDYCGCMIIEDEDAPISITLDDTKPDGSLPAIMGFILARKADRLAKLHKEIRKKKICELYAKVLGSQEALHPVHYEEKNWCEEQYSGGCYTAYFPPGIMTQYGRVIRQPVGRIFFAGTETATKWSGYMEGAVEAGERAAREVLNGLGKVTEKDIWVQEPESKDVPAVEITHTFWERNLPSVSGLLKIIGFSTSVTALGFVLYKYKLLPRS

[2] = target: T1, Amine oxidase [flavin-containing] A; assay: Irreversible inhibition of recombinant human MAO-A at 5 time Ki value preincubated for 15 mins followed by dilution of enzyme-inhibitor mixture for 24 hrs and subsequent p-tyramine substrate addition by dialysis method
[3] = Cytotoxicity against human HepG2 cells assessed as cell viability at 1 uM after 24 hrs by MTT assay relative to control; type: cell-based; settings: read-out: Activity
Homo sapiens = organism: Homo sapiens; assay: Selectivity index, ratio of Ki for recombinant human MAO-B to Ki for recombinant human MAO-A
[4] = Cytotoxicity against human HepG2 cells assessed as cell viability at 25 uM after 24 hrs by MTT assay relative to control; type: cell-based; settings: read-out: Activity
[5] = target: T1, Amine oxidase [flavin-containing] A; assay: Competitive inhibition of recombinant human MAO-A assessed as reduction in H2O2 production preincubated for 30 mins followed by p-tyramine substrate addition measured after 30 mins by Lineweaver-Burk plot analysis; settings: 0.5 h
[6] = target: T1, Amine oxidase [flavin-containing] A; assay: Reversible inhibition of recombinant human MAO-A assessed as enzyme activity recovery at 5 time Ki value preincubated for 15 mins followed by dilution of enzyme-inhibitor mixture for 24 hrs and subsequent p-tyramine substrate addition by dialysis method
[7] = target: T2, Amine oxidase [flavin-containing] B (Homo sapiens, UniProt P27338)
T2 sequence (P27338 whole entry): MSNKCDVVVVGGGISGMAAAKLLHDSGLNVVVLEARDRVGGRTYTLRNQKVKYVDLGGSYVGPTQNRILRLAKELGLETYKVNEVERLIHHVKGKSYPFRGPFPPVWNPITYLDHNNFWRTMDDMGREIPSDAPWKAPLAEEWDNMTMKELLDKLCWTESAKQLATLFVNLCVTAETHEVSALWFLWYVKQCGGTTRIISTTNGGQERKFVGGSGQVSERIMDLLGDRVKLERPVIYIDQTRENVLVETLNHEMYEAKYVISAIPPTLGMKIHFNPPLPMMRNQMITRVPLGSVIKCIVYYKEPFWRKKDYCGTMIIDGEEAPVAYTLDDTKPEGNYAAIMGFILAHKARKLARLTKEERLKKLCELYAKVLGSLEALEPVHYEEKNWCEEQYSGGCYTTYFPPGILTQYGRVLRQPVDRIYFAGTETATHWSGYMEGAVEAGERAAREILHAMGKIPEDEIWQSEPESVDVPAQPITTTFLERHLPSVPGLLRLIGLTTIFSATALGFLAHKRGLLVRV
Description: Inhibition of recombinant human MAO-B assessed as reduction in H2O2 production preincubated for 30 mins followed by p-tyramine substrate addition measured after 30 mins by amplex red reagent based fluorescence assay

[8] = Cytotoxicity against human HepG2 cells assessed as cell viability at 5 uM after 24 hrs by MTT assay relative to control; type: cell-based; settings: read-out: Activity
in vitro = settings: PAMPA
Description: Permeability of the compound at 50 ug/ml after 16 hrs by PAMPA

[9] = target: T1, Amine oxidase [flavin-containing] A; assay: Inhibition of recombinant human MAO-A assessed as reduction in H2O2 production preincubated for 30 mins followed by p-tyramine substrate addition measured after 30 mins by amplex red reagent based fluorescence assay

Row | Structure (SMILES) | inhibition (INH) [1] | inhibition (INH) [2] | viability at 24 h, 1 µM [3] | Ratio Ki (Homo sapiens) | viability at 24 h, 25 µM [4] | inhibition (INH) [5] | inhibition (INH) [6] | Ki [7] | viability at 24 h, 5 µM [8] | Papp at 16 h, 50 ug/ml (in vitro) | Ki [9]
1 | C#CCN(C)[C@H](C)Cc1ccccc1 [SELEGILINE] | Active | Active |  |  |  |  |  |  |  |  | 
2 | COc1cc(C2=NN(S(=O)(=O)c3ccc(C)cc3)C(c3ccc(Cl)cc3)C2)ccc1O (configuration not stated) |  |  | 91.2% | 150 | 64.1% | Active | Active | 6000 µM | 79.5% | 12 ×10⁻⁶ cm/s | 40 µM
3 | COc1cc(C2=NN(C(=O)c3ccccc3)C(c3ccc(Cl)cc3)C2)ccc1O (configuration not stated) |  |  | 90% | 229 | 78.2% | Active | Active | 6000 µM | 86.3% |  | 26.2 µM
4 | COc1cc(C2=NN(C(=S)Nc3ccccc3)C(c3ccc(Cl)cc3)C2)ccc1O (configuration not stated) |  |  | 95% | 244 | 80.3% | Active | Active | 4770 µM | 88.2% | 9.55 ×10⁻⁶ cm/s | 19.6 µM
5 | COc1cc(C2=NN(C(=O)Oc3ccccc3)C(c3ccc(Cl)cc3)C2)ccc1O (configuration not stated) |  |  | 93.1% | 29.9 | 77% | Active | Active | 5770 µM | 81.7% |  | 193 µM
6 | COc1cc(C2=NNC(c3ccc(Cl)cc3)C2)ccc1O (configuration not stated) |  |  | 99% | 1750 | 90.2% | Active | Active | 140 µM | 94.5% | 13.9 ×10⁻⁶ cm/s | 0.08 µM
7 | C[C@]12CC[C@@H]3c4ccc(O)cc4CC[C@H]3[C@@H]1CC[C@@H]2O [ESTRADIOL] |  |  |  |  |  |  |  |  |  | 11.8 ×10⁻⁶ cm/s | 
8 | CCn1cc(C(=O)O)c(=O)c2cc(F)c(N3CCNC(C)C3)c(F)c21 (configuration not stated) [LOMEFLOXACIN] |  |  |  |  |  |  |  |  |  | 1.24 ×10⁻⁶ cm/s | 
9 | NCCNC(=O)c1ccc(Cl)cn1 [LAZABEMIDE] |  |  |  |  |  | Active | Active |  |  |  | 7900 µM
10 | O=C(NCCN1CCOCC1)c1ccc(Cl)cc1 [MOCLOBEMIDE] |  |  |  |  |  | Active | Active |  |  |  | 
